Results from Sander's compilation of Henry's law constants.

Tests used:
[1] = Henry solubility constant Hcp at 294 K (mol/(m3 Pa))
[2] = Henry solubility constant Hcp at 298.15 K (mol/(m3 Pa))
[3] = Henry solubility constant Hcp at 278 K (mol/(m3 Pa)); settings: reference: Sauer (1997)
[4] = Henry solubility constant Hcp at 291 K (mol/(m3 Pa)); settings: reference: Treves et al. (2000)
[5] = Henry solubility constant Hcp at 296 K (mol/(m3 Pa))
[6] = Henry solubility constant Hcp at 295 K (mol/(m3 Pa)); settings: reference: de Wolf and Lieder (1998)
[7] = Henry solubility constant Hcp at 303 K (mol/(m3 Pa)); settings: reference: Saylor et al. (1938)
[8] = Henry solubility constant Hcp at 293 K (mol/(m3 Pa))
[9] = reference: Murphy et al. (1983a)
[10] = reference: O’Sullivan et al. (1996)
[11] = reference: Warner et al. (1980)

## Clc1cc(Cl)c(-c2ccc(Cl)c(Cl)c2Cl)cc1Cl [2,2',3,4,4',5'-hexachlorobiphenyl]
[1]; reference: Brownawell (1986)
  Henry solubility constant Hcp at 294 K: 0.14
[2]; [9]
  Henry solubility constant Hcp: 0.021

## CC(=O)OO [ethanoic peroxyacid]
[3]
  Henry solubility constant Hcp at 278 K: 24
[2]; reference: Lind and Kok (1994)
  Henry solubility constant Hcp: 6.5
[2]; [10]
  Henry solubility constant Hcp: 8.3

## O=COO [methanoic peroxyacid]
[3]
  Henry solubility constant Hcp at 278 K: 29

## O=[N+]([O-])OCCCCO [4-nitrooxy-1-butanol]
[4]
  Henry solubility constant Hcp at 291 K: 290

## Clc1ccc(Cl)c(-c2ccc(Cl)c(Cl)c2)c1 [2,3',4',5-tetrachlorobiphenyl]
[1]; reference: Brownawell (1986)
  Henry solubility constant Hcp at 294 K: 0.11
[2]; [9]
  Henry solubility constant Hcp: 0.049

## CI [iodomethane]
[1]; reference: Gan and Yates (1996)
  Henry solubility constant Hcp at 294 K: 0.0019
[2]; reference: Balls (1980)
  Henry solubility constant Hcp: 0.002
[2]; reference: Elliott and Rowland (1993)
  Henry solubility constant Hcp: 0.002
[2]; reference: Glew and Moelwyn-Hughes (1953)
  Henry solubility constant Hcp: 0.0019
[2]; reference: Hunter-Smith et al. (1983)
  Henry solubility constant Hcp: 0.0019
[2]; reference: Swain and Thornton (1962)
  Henry solubility constant Hcp: 0.0018

## c1ccccc1 [benzene]
[5]; reference: Anderson (1992)
  Henry solubility constant Hcp at 296 K: 0.0018
[5]; reference: Miller and Stuart (2000)
  Henry solubility constant Hcp at 296 K: 0.0018
[6]
  Henry solubility constant Hcp at 295 K: 0.0022
[7]
  Henry solubility constant Hcp at 303 K: 0.0015
[8]; reference: Vitenberg et al. (1974)
  Henry solubility constant Hcp at 293 K: 0.0012
[8]; reference: Yu (1992)
  Henry solubility constant Hcp at 293 K: 0.0019
[8]; reference: Yurteri et al. (1987)
  Henry solubility constant Hcp at 293 K: 0.0013
[2]; reference: Alaee et al. (1996)
  Henry solubility constant Hcp: 0.0018
[2]; reference: Allen et al. (1998)
  Henry solubility constant Hcp: 0.0018
[2]; reference: Bakierowska and Trzeszczyński (2003)
  Henry solubility constant Hcp: 0.0018
[2]; reference: Bierwagen and Keller (2001)
  Henry solubility constant Hcp: 0.0019
[2]; reference: Bissonette et al. (1990)
  Henry solubility constant Hcp: 0.0016
[2]; reference: Brown and Wasik (1974)
  Henry solubility constant Hcp: 0.0017
[2]; reference: Cooling et al. (1992)
  Henry solubility constant Hcp: 0.0017
[2]; reference: Ervin et al. (1980)
  Henry solubility constant Hcp: 0.0012
[2]; reference: Ettre et al. (1993)
  Henry solubility constant Hcp: 0.0018
[2]; reference: Green and Frank (1979)
  Henry solubility constant Hcp: 0.0018
[2]; reference: Görgényi et al. (2002)
  Henry solubility constant Hcp: 0.0017
[2]; reference: Hartkopf and Karger (1973)
  Henry solubility constant Hcp: 0.0021
[2]; reference: Keeley et al. (1988)
  Henry solubility constant Hcp: 0.0017
[2]; reference: Khalfaoui and Newsham (1994b)
  Henry solubility constant Hcp: 0.0017
[2]; reference: Lau et al. (2010)
  Henry solubility constant Hcp: 0.0014
[2]; reference: Lei et al. (2004)
  Henry solubility constant Hcp: 0.0014
[2]; reference: Li et al. (2008)
  Henry solubility constant Hcp: 0.0018
[2]; reference: Lodge and Danso (2007)
  Henry solubility constant Hcp: 0.0025
[2]; reference: Mackay et al. (1979)
  Henry solubility constant Hcp: 0.0018
[2]; reference: Nielsen et al. (1994)
  Henry solubility constant Hcp: 0.002
[2]; reference: Park et al. (1997)
  Henry solubility constant Hcp: 0.0014
[2]; reference: Peng and Wan (1997)
  Henry solubility constant Hcp: 0.0019
[2]; reference: Peng and Wan (1998)
  Henry solubility constant Hcp: 0.0022
[2]; reference: Perlinger et al. (1993)
  Henry solubility constant Hcp: 0.0017
[2]; reference: Robbins et al. (1993)
  Henry solubility constant Hcp: 0.0018
[2]; reference: Sanemasa et al. (1981)
  Henry solubility constant Hcp: 0.0017
[2]; reference: Sieg et al. (2009)
  Henry solubility constant Hcp: 0.0017
[2]; reference: Tsibul’skii et al. (1979)
  Henry solubility constant Hcp: 0.0016
[2]; reference: Tsonopoulos and Wilson (1983)
  Henry solubility constant Hcp: 0.0018
[2]; reference: Turner et al. (1996)
  Henry solubility constant Hcp: 0.0016
[2]; reference: Vitenberg et al. (1975)
  Henry solubility constant Hcp: 0.0018
[2]; [11]
  Henry solubility constant Hcp: 0.0018
[2]; reference: Wasik and Tsang (1970)
  Henry solubility constant Hcp: 0.0016

## COO [methyl hydroperoxide]
[3]
  Henry solubility constant Hcp at 278 K: 12
[2]; reference: Li et al. (2004)
  Henry solubility constant Hcp: 2.5
[2]; reference: Lind and Kok (1994)
  Henry solubility constant Hcp: 3
[2]; reference: Magi et al. (1997)
  Henry solubility constant Hcp: > 6.9
[2]; [10]
  Henry solubility constant Hcp: 3.1

## CCC(CO)O[N+](=O)[O-] (stereo not given) [2-nitrooxy-1-butanol]
[4]
  Henry solubility constant Hcp at 291 K: 88

## Clc1cccc(Cl)c1 [1,3-dichlorobenzene]
[6]
  Henry solubility constant Hcp at 295 K: 0.0037
[2]; reference: Li et al. (2008)
  Henry solubility constant Hcp: 0.0029
[2]; [11]
  Henry solubility constant Hcp: 0.0038

## CC(O)CCO[N+](=O)[O-] (stereo not given) [4-nitrooxy-2-butanol]
[4]
  Henry solubility constant Hcp at 291 K: 130
